The record followed here is patent US5482967A, “Condensed heterocyclic compounds, their production and use” (Takeda Chemical Industries, Ltd., priority 1992, dated 1996).

Each structure is given as a SMILES string.

For experiment [1], the target named is T1, acyl-CoA:cholesterol acyl transferase (ACAT) (Rattus norvegicus, UniProt Q7TQM4).
T1 construct: small intestine mucosal microsome fraction of a 6-week-old male Sprague-Dawley rat; from tissue; host or cells: rat small intestine mucosa, microsome fraction
T1 sequence (Q7TQM4 1-524): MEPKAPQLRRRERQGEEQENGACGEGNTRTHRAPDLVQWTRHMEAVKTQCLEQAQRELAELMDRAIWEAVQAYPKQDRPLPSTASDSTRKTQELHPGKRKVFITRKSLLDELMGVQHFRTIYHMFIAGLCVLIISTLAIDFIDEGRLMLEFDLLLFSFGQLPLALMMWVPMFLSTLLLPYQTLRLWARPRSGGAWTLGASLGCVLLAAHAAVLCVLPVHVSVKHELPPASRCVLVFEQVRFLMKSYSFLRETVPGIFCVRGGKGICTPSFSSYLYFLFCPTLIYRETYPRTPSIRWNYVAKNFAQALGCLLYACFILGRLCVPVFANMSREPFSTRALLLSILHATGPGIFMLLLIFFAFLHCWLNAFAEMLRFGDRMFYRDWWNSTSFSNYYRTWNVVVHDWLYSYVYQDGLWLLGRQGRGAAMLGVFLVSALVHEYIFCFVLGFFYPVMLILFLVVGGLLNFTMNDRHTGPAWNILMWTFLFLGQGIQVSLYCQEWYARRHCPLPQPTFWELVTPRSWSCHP
Put plainly: Inhibitory action against acyl-CoA:cholesterol acyl transferase (ACAT), formation of labeled cholesterol ester, small intestine mucosal microsome fraction. It is filed as biochemical, male Sprague-Dawley rat. The conditions noted are these: 10^-6 M; read-out: ACAT Inhibitory Rate (%). The procedure:
An ACAT enzyme preparation was prepared from a small intestine mucosal microsome fraction of a 6-week-old male Sprague-Dawley rat, previously fasted for 20 hours, in accordance with the method described by Heider et al. in the Journal of Lipid Research, Vol. 24, page 1127 (1982).
ACAT activity was determined by measuring the amount of labeled cholesterol ester produced from [1-^14 C]-oleoyl-CoA and endogenous cholesterol, in accordance with the method of Helgerud et al. [Journal of Lipid Research, Vol. 22, page 271 (1981)].

Another experiment addresses substance P receptor (Homo sapiens, UniProt P25103). Put plainly: Radioligand receptor binding inhibitory assay using receptor from human lymphoblast cells (IM-9), 125I-BHSP. The following applies: IM-9 receptor, 25° C., 30 minutes. In outline:
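IM-9 lymphoblast membranes (suspended at 1.5 mg/ml protein) were incubated with 125I-BHSP (0.46 KBq) at 25 °C for 30 min in 50 mM Tris-HCl pH 7.4 with BSA, protease inhibitors and 3 mM MnCl2. Nonspecific binding was defined with 2×10^-6 M substance P. Bound radioactivity was collected on PEI-treated GF/B filters and gamma-counted.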

substance P receptor, sequence (P25103 whole entry): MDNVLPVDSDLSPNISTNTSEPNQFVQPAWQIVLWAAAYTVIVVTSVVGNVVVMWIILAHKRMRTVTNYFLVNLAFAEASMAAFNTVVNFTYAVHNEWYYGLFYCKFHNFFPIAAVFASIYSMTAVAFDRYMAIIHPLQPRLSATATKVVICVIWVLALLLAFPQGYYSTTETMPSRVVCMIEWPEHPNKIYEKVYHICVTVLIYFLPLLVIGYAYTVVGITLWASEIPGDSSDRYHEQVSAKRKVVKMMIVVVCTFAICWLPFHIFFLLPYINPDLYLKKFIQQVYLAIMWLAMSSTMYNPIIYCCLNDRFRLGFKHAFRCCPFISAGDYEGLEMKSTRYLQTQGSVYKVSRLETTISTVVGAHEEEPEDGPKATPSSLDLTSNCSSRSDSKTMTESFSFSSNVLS

As for `Cc1cccc(NC(=O)[C@H]2[C@H](c3ccc(F)cc3)c3ccccc3C(=O)N2C)c1` (relative stereo) [Example 9, 3,4-trans-4-(4-Fluorophenyl)-1,2,3,4-tetrahydro-2-methyl-N-(3-methylphenyl)-1-oxo-3-isoquinolinecarboxamide], the inhibition at 1 µM in experiment [1] is 90.3%.
Same read-out and setting: with `Cc1cc2c(cc1C)N(C)C(=O)[C@@H](C(=O)Nc1ccc(F)cc1F)[C@@H]2c1ccccc1Cl` (relative stereo) [Example 10, 3,4-trans-4-(2-Chlorophenyl)-N-(2,4-difluorophenyl)-1,2,3,4-tetrahydro-1,6,7-trimethyl-2-oxo-3-quinolinecarboxamide] the figure was 93.3%.
The same measure, in the same setting: as for `CC(C)c1ccc2c(c1)[C@@H](c1ccc(F)cc1)[C@H](C(=O)Nc1c(C(C)C)cccc1C(C)C)C(=O)O2` (relative stereo) [Example 13, 3,4-trans-N-[2,6-Bis(1-methylethyl)phenyl]-4-(4-fluorophenyl)-3,4-dihydro-6-(1-methylethyl)-2-oxo-2H-1-benzopyran-3-carboxamide], the figure is 93.8%; as for `Cc1cc2c(cc1C)N(C)C[C@@H](C(=O)Nc1c(C(C)C)cccc1C(C)C)[C@@H]2c1ccccc1Cl` (relative stereo) [Example 15, 3,4-trans-N-[2,6-Bis(1-methylethyl)phenyl]-4-(2-chlorophenyl)-1,2,3,4-tetrahydro-1,6,7-trimethyl-3-quinolinecarboxamide], 90.2%.
With `Cc1cc2c(cc1C)N(C)C(=O)[C@@H](CC(=O)Nc1c(C(C)C)cccc1C(C)C)[C@@H]2c1ccccc1Cl` (relative stereo) [Example 20, 3,4-trans-N-[2,6-Bis(1-methylethyl)phenyl]-4-(2-chlorophenyl)-1,2,3,4-tetrahydro-1,6,7-trimethyl-2-oxo-3-quinolineacetamide], in experiment [1], the inhibition at 1 µM is 97.8%.
For `CC(C)c1cccc(C(C)C)c1NC(=O)C[C@@H]1C(=O)N(C)c2ccc(Cl)cc2[C@H]1c1ccccc1Cl` (relative stereo) [Example 21, 3,4-trans-N-[2,6-Bis(1-methylethyl)phenyl]-6-chloro-4-(2-chlorophenyl)-1,2,3,4-tetrahydro-1-methyl-2-oxo-3-quinolineacetamide], the inhibition at 1 µM in experiment [1] was 99.3%.
Consider `Cc1cccc(C(C)C)c1NC(=O)C[C@H]1C(=O)N(C)c2ccc(Cl)cc2[C@H]1c1ccccc1` (relative stereo) [Example 22, 3,4-cis-6-Chloro-1,2,3,4-tetrahydro-1-methyl-N-[2-methyl-6-(1-methylethyl)phenyl]-2-oxo-4-phenyl-3-quinolineacetamide], for which the inhibition at 1 µM in experiment [1] amounted to 97.9%.
On to `Cc1cccc(C(C)C)c1NC(=O)C[C@@H]1C(=O)N(C)c2ccc(Cl)cc2[C@H]1c1ccccc1` (relative stereo) [Example 23, 3,4-trans-6-Chloro-1-methyl-N-[2-methyl-6-(1-methylethyl)phenyl]-2-oxo-4-phenyl-1,2,3,4-tetrahydro-3-quinolineacetamide], for which the inhibition at 1 µM in experiment [1] was found to be 99.4%.
The same measure, in the same setting: as for `COc1cc(OC)c(NC(=O)C[C@@H]2C(=O)N(C)c3ccc(Cl)cc3[C@H]2c2ccccc2)c(OC)c1` (relative stereo) [Example 25, 3,4-trans-6-Chloro-1,2,3,4-tetrahydro-1-methyl-2-oxo-4-phenyl-N-(2,4,6-trimethoxyphenyl)-3-quinolineacetamide], the figure is 96.9%; as for `CN1C(=O)[C@@H](CC(=O)Nc2ccc(F)cc2F)[C@H](c2ccccc2)c2cc(Cl)ccc21` (relative stereo) [Example 27, 3,4-trans-6-Chloro-N-(2,4-difluorophenyl)-1,2,3,4-tetrahydro-1-methyl-2-oxo-4-phenyl-3-quinolineacetamide], 92%; as for `Cc1cccc(C)c1NC(=O)C[C@@H]1C(=O)N(C)c2ccc(Cl)cc2[C@H]1c1ccccc1` (relative stereo) [Example 29, 3,4-trans-6-Chloro-N-(2,6-dimethylphenyl)-1,2,3,4-tetrahydro-1-methyl-2-oxo-4-phenyl-3-quinolineacetamide], 98.4%.
On the same count and under the same terms, with `Cc1cc(C)c(NC(=O)C[C@@H]2C(=O)N(C)c3ccc(Cl)cc3[C@H]2c2ccccc2)c(C)c1` (relative stereo) [Example 31, 3,4-trans-6-Chloro-1,2,3,4-tetrahydro-1-methyl-2-oxo-4-phenyl-N-(2,4,6-trimethylphenyl)-3-quinolineacetamide] the figure was 97.5%; with `CC(C)c1cccc(C(C)C)c1NC(=O)C[C@H]1C(=O)N(C)c2ccc(Cl)cc2[C@H]1c1ccccc1` (relative stereo) [Example 32, 3,4-cis-N-[2,6-Bis(1-methylethyl)phenyl]-6-chloro-1,2,3,4-tetrahydro-1-methyl-2-oxo-4-phenyl-3-quinolineacetamide], 96%.
Still for that read-out and setting: as for `CC(C)c1cccc(C(C)C)c1NC(=O)C[C@@H]1C(=O)N(C)c2ccc(Cl)cc2[C@H]1c1ccccc1` (relative stereo) [Example 33, 3,4-trans-N-[2,6-Bis(1-methylethyl)phenyl]-6-chloro-1,2,3,4-tetrahydro-1-methyl-2-oxo-4-phenyl-3-quinolineacetamide], the figure is 98.9%; as for `CC(C)c1cccc(C(C)C)c1NC(=O)C[C@H]1CN(C)c2ccc(Cl)cc2[C@H]1c1ccccc1` (relative stereo) [Example 36, 3,4-cis-N-[2,6-Bis(1-methylethyl)phenyl]-6-chloro-1,2,3,4-tetrahydro-1-methyl-4-phenyl-3-quinolineacetamide], 98.8%; as for `Cc1ccc2c(c1)[C@@H](c1ccccc1)[C@H](CC(=O)Nc1c(C(C)C)cccc1C(C)C)C(=O)N2C` (relative stereo) [Example 60, 3,4-trans-N-[2,6-Bis(1-methylethyl)phenyl]-1,2,3,4-tetrahydro-1,6-dimethyl-2-oxo-4-phenyl-3-quinolineacetamide], 99.9%.
One may read the IC50 as the concentration needed to halve the response being measured. A lower IC50 goes with greater potency. For the molecule `CSc1nc2ccccc2c(-c2ccccc2)c1C(=O)N(C)Cc1cc(C(F)(F)F)cc(C(F)(F)F)c1` [Example 272, N-[3,5-Bis(trifluoromethyl)benzyl]-N-methyl-2-methylthio-4-phenyl-3-quinolinecarboxamide], at substance P receptor, the IC50 amounted to 23 nM.
Same read-out and setting: with `CN(Cc1cc(C(F)(F)F)cc(C(F)(F)F)c1)C(=O)c1nc(Cl)c2ccccc2c1-c1ccc(F)cc1` [Example 273, N-[3,5-Bis(trifluoromethyl)benzyl]-1-chloro-4-(4-fluorophenyl)-N-methyl-3-isoquinolinecarboxamide] the figure was 2 nM; with `CN(Cc1cc(C(F)(F)F)cc(C(F)(F)F)c1)C(=O)c1ncc2ccccc2c1-c1ccc(F)cc1` [Example 274, N-[3,5-Bis(trifluoromethyl)benzyl]-4-(4-fluorophenyl)-N-methyl-3-isoquinolinecarboxamide], 2.3 nM; with `CN(Cc1cc(C(F)(F)F)cc(C(F)(F)F)c1)C(=O)c1nc(Cl)c2ccccc2c1-c1ccccc1` [Example 275, N-[3,5-Bis(trifluoromethyl)benzyl]-1-chloro-N-methyl-4-phenyl-3-isoquinolinecarboxamide], 1.9 nM.
On the same count and under the same terms, as for `CN(Cc1cc(C(F)(F)F)cc(C(F)(F)F)c1)C(=O)c1ncc2ccccc2c1-c1ccccc1` [Example 276, N-[3,5-Bis(trifluoromethyl)benzyl]-N-methyl-4-phenyl-3-isoquinolinecarboxamide], the figure is 3 nM; as for `COc1nc(C(=O)N(C)Cc2cc(C(F)(F)F)cc(C(F)(F)F)c2)c(-c2ccccc2)c2ccccc12` [Example 277, N-[3,5-Bis(trifluoromethyl)benzyl]-1-methoxy-N-methyl-4-phenyl-3-isoquinolinecarboxamide], 54 nM.
On the same count and under the same terms, as for `CNc1nc(C(=O)N(C)Cc2cc(C(F)(F)F)cc(C(F)(F)F)c2)c(-c2ccccc2)c2ccccc12` [Example 278, N-[3,5-Bis(trifluoromethyl)benzyl]-N-methyl-1-methylamino-4-phenyl-3-isoquinolinecarboxamide], the figure is 10 nM.
As to `CN(Cc1cc(C(F)(F)F)cc(C(F)(F)F)c1)C(=O)c1c(-c2ccccc2)c2ccccc2c(=O)n1CC[N+](C)(C)C` [Example 282, N-[3,5-Bis(trifluoromethyl)benzyl]-1,2-dihydro-N-methyl-1-oxo-4-phenyl-2-[2-(N,N,N-trimethylammonium)ethyl]-3-isoquinolinecarboxamide], the concentration for half-maximal inhibition (IC50) on substance P receptor stood at 22 nM. This IC50 is about 2.2-fold higher than that of the molecule before.
The same measure, in the same setting: with `CN(Cc1cc(C(F)(F)F)cc(C(F)(F)F)c1)C(=O)c1c(-c2ccccc2)c2ccccc2c(=S)n1C` [Example 285, N-[3,5-Bis(trifluoromethyl)benzyl]-1,2-dihydro-N,2-dimethyl-4-phenyl-1-thioxo-3-isoquinolinecarboxamide] the figure was 9.4 nM.
